In patent publication US9951010B2, “Compounds as CRTH2 antagonist and uses thereof” (SUNSHINE LAKE PHARMA CO., LTD., priority 2014, dated 2018):
Where a name gives a salt, the structure may show the parent alone.

molecular target: T1, CRTH2 receptor (Homo sapiens, UniProt Q9Y5Y4); experiment: FLIPR detection of inhibitory activity against CRTH2 (CHO-K1/G cells, PGD2 as agonist); type: cell-based; settings: CHO-K1/G cells with stable expression of CRTH2 receptor, PGD2 at EC80, FLIPR
T1 construct: expressed in transfected cells; host or cells: CHO-K1/G cells
T1 sequence (Q9Y5Y4 1-395): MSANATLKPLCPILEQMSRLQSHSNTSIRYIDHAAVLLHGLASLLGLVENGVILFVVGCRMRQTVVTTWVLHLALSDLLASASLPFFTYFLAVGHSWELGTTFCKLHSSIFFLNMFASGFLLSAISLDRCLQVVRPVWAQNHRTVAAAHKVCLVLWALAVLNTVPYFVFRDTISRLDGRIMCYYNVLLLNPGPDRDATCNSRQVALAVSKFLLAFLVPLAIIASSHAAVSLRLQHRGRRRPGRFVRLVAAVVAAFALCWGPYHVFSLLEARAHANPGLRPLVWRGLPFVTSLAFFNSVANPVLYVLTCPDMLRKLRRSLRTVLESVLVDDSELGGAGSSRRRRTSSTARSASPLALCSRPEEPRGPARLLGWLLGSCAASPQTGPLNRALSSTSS
Experimental: The test compound was weighed accurately and then dissolved in a suitable amount of DMSO to prepare a stock solution at a concentration of 10 mM; after clear and transparent, the stock solution was subpackaged and cryostoraged at −20° C. for use. Before testing, the test compound was diluted with balanced salt solution (HBSS buffer, containing 4-(2-hydroxyethyl)piperazine-1-ethanesulfonicacid) at a concentration of 20 mM) to 5 times testing concentration.
CHO-K1/G cells with stable expression of CRTH2 receptor were prepared to 5 times testing concentration and seeded into 384-microwell plate, and incubated in an incubator at 37° C./5% CO2. After incubating for 18 hours, to the cells in 384-microwell plate was added 20 μL of dye followed by the addition of 10 μL of prepared test compound solution. And then the cell plate was incubated in the incubator at 37° C./5% CO2 for 1 hour, at last which was balanced at rt for 15 min. After adding 12.5 μL of positive agonist (PGD2) at a concentration of 5 times EC80 to each well of the cell plate, the RFU (fluorescence intensity) value of the test compound was detected.
The data were recorded from ScreenWorks (version 3.1), and collected and analyzed by using Excel and GraphPad Prism 6 software to calculate the values of IC50.

Row | IC50 | SMILES
1 | 17.4 nM | Cc1c(C2CCCN(S(=O)(=O)c3ccc(F)cc3)C2)c2cc(F)ccc2n1CC(=O)O (centres unmarked) [Example 40, 2-(5-fluoro-3-(1-((4-fluorophenyl)sulfonyl)piperidin-3-yl)-2-methyl-1H-indol-1-yl)acetic acid]
2 | 776 nM | Cc1c(C2=CCCN(C(=O)c3ccc4ccccc4n3)C2)c2cc(F)ccc2n1CC(=O)O [Example 7, 2-(5-fluoro-2-methyl-3-(1-(quinoline-2-carbonyl)-1,2,5,6-tetrahydropyridin-3-yl)-1H-indol-1-yl)acetic acid hydrochloride]
3 | 79.5 nM | Cc1c(C2CCC(NS(=O)(=O)c3ccc(F)cc3F)CC2)c2cc(F)ccc2n1CC(=O)O (single isomer, unassigned) [Example 29b, 2-(3-(4-(2,4-difluorophenylsulfonamido)cyclohexyl)-5-fluoro-2-methyl-1H-indol-1-yl)acetic acid]
4 | 39.8 nM | Cc1c(C2CCC(NC(=O)c3ccc4cccnc4n3)CC2)c2cc(F)ccc2n1CC(=O)O (single isomer, unassigned) [Example 20, 2-(3-(4-(1,8-naphthyridine-2-carboxamido)cyclohexyl)-5-fluoro-2-methyl-1H-indol-1-yl)acetic acid hydrochloride]
5 | 306 nM | Cc1c(C2CCN(C(=O)c3ccc4ccccc4n3)CC2)c2cc(F)ccc2n1CC(=O)O [Example 4, 2-(5-fluoro-2-methyl-3-(1-(quinoline-2-carbonyl)piperidin-4-yl)-1H-indol-1-yl)acetic acid hydrochloride]
6 | 674 nM | Cc1c(C2CCN(C(=O)c3cccc4ccccc34)CC2)c2cc(F)ccc2n1CC(=O)O [Example 2, 2-(3-(1-(1-naphthoyl)piperidin-4-yl)-5-fluoro-2-methyl-1H-indol-1-yl)acetic acid]
7 | 265 nM | Cc1c(C2CCC(NC(=O)c3cccc4ccccc34)CC2)c2cc(F)ccc2n1CC(=O)O (centres unmarked) [Example 3, 2-(3-(4-(1-naphthamido)cyclohexyl)-5-fluoro-2-methyl-1H-indol-1-yl)acetic acid]
8 | 422 nM | Cc1c(C2CCN(S(=O)(=O)c3ccc(Cl)cc3Cl)CC2)c2cc(F)ccc2n1CC(=O)O [Example 36, 2-(5-fluoro-3-(1-((2,4-dichlorophenyl)sulfonyl)piperidin-4-yl)-2-methyl-1H-indol-1-yl)acetic acid]
9 | 33.7 nM | Cc1c(C2CC(NS(=O)(=O)c3ccc(F)cc3)C2)c2cc(F)ccc2n1CC(=O)O (centres unmarked) [Example 32, 2-(5-fluoro-3-(3-(4-fluorophenylsulfonamido)cyclobutyl)-2-methyl-1H-indol-1-yl)acetic acid]
10 | 192 nM | Cc1c(C2=CCN(C(=O)NCc3ccc(F)cc3F)CC2)c2cc(F)ccc2n1CC(=O)O [Example 9a, 2-(3-(1-((2,4-difluorobenzyl)carbamoyl)-1,2,3,6-tetrahydropyridin-4-yl)-5-fluoro-2-methyl-1H-indol-1-yl)acetic acid]
11 | 6190 nM | O=C(O)Cn1cc(C2CCN(S(=O)(=O)c3ccc(F)cc3)CC2)c2ccccc21 [Control compound, reference compound]
12 | 969 nM | Cc1c(C2CCC(NC(=O)NCc3ccc(F)cc3F)CC2)c2cc(F)ccc2n1CC(=O)O (centres unmarked) [Example 16, 2-(3-(4-(3-(2,4-difluorobenzyl)ureido)cyclohexyl)-5-fluoro-2-methyl-1H-indol-1-yl)acetic acid]
13 | 106 nM | Cc1c(C2CCN(S(=O)(=O)c3ccccc3F)CC2)c2cc(F)ccc2n1CC(=O)O [Example 39, 2-(5-fluoro-3-(1-((2-fluorophenyl)sulfonyl)piperidin-4-yl)-2-methyl-1H-indol-1-yl)acetic acid]
14 | 317 nM | Cc1c(C2CCN(S(=O)(=O)c3ccccc3)CC2)c2cc(F)ccc2n1CC(=O)O [Example 46, 2-(5-fluoro-2-methyl-3-(1-(phenylsulfonyl)piperidin-4-yl)-1H-indol-1-yl)acetic acid]
15 | 333 nM | Cc1c(C2CCN(S(=O)(=O)c3ccc(F)cc3Cl)CC2)c2cc(F)ccc2n1CC(=O)O [Example 35, 2-(5-fluoro-3-(1-((2-chloro-4-fluorophenyl)sulfonyl)piperidin-4-yl)-2-methyl-1H-indol-1-yl) acetic acid]
16 | 185 nM | Cc1c(C2CC(NC(=O)c3ccc4ccccc4n3)C2)c2cc(F)ccc2n1CC(=O)O (centres unmarked) [Example 21, 2-(5-fluoro-2-methyl-3-(3-(quinoline-2-carboxamido)cyclobutyl)-1H-indol-1-yl)acetic acid hydrochloride]
17 | 283 nM | Cc1c(C2CCN(S(=O)(=O)c3cccc4ccccc34)CC2)c2cc(F)ccc2n1CC(=O)O [Example 42, 2-(5-fluoro-2-methyl-3-(1-(naphthalen-1-ylsulfonyl)piperidin-4-yl)-1H-indol-1-yl)acetic acid]
18 | 866 nM | Cc1c(C2=CCCN(C(=O)c3cccc4ccccc34)C2)c2cc(F)ccc2n1CC(=O)O [Example 23, 2-(3-(1-(1-naphthoyl)-1,2,5,6-tetrahydropyridin-3-yl)-5-fluoro-2-methyl-1H-indol-1-yl)acetic acid]
19 | 139 nM | Cc1c(C2CCN(S(=O)(=O)c3ccc(Cl)cc3)CC2)c2cc(F)ccc2n1CC(=O)O [Example 47, 2-(3-(1-((4-chlorophenyl)sulfonyl)piperidin-4-yl)-5-fluoro-2-methyl-1H-indol-1-yl)acetic acid]
20 | 138 nM | Cc1c(C2CCC(N(C)S(=O)(=O)c3ccc(F)cc3)CC2)c2cc(F)ccc2n1CC(=O)O (centres unmarked) [Example 28, 2-(5-fluoro-3-(4-(4-fluoro-N-methylphenylsulfonamido)cyclohexyl)-2-methyl-1H-indol-1-yl) acetic acid]
21 | 211 nM | Cc1c(C2CCN(S(=O)(=O)c3ccc(Cl)cc3F)CC2)c2cc(F)ccc2n1CC(=O)O [Example 34, 2-(5-fluoro-3-(1-((4-chloro-2-fluorophenyl)sulfonyl)piperidin-4-yl)-2-methyl-1H-indol-1-yl) acetic acid]
22 | 545 nM | Cc1c(C2CCC(NC(=O)c3cccc4c(F)cccc34)CC2)c2cc(F)ccc2n1CC(=O)O (centres unmarked) [Example 10, 2-(5-fluoro-3-(4-(5-fluoro-1-naphthamido)cyclohexyl)-2-methyl-1H-indol-1-yl)acetic acid]
23 | 97.2 nM | Cc1c(C2CCC(N(C)C(=O)c3ccc4ccccc4n3)CC2)c2cc(F)ccc2n1CC(=O)O (single isomer, unassigned) [Example 17b, 2-(5-fluoro-2-methyl-3-(4-(N-methylquinoline-2-carboxamido)cyclohexyl)-1H-indol-1-yl)acetic acid hydrochloride]
24 | 137 nM | Cc1c(C2CCN(S(=O)(=O)c3ccc(O)cc3)CC2)c2cc(F)ccc2n1CC(=O)O [Example 37, 2-(5-fluoro-3-(1-((4-hydroxyphenyl)sulfonyl)piperidin-4-yl)-2-methyl-1H-indol-1-yl)acetic acid]
25 | 600 nM | Cc1c(C2CCC(N(C)C(=O)c3ccc4ccccc4n3)CC2)c2cc(F)ccc2n1CC(=O)O (single isomer, unassigned) [Example 17a, 2-(5-fluoro-2-methyl-3-(4-(N-methylquinoline-2-carboxamido)cyclohexyl)-1H-indol-1-yl)acetic acid hydrochloride]

Row | SMILES | IC50
26 | Cc1c(C2=CCN(Cc3ccc4ccccc4n3)CC2)c2cc(F)ccc2n1CC(=O)O [Example 8, 2-(5-fluoro-2-methyl-3-(1-(quinolin-2-yl)methyl-1,2,3,6-tetrahydropyridin-4-yl)-1H-indol-1-yl)acetic acid dihydrochloride] | 657 nM
